The source of these data is patent publication US20080063679A1, “NANOCOMPOSITES WITH RESIDUAL BIOCIDAL AND BIOSTATIC PROPERTIES” (Quartek Corporation, priority 2006, published 2008).

The subject of one data set is G+ & G−. Put plainly: Bactericidal effectiveness, comparison table. It is filed as cell-based. Particulars: Table 1. The text has this:
(§1) Current antimicrobials have a short life with no residual effect. They lose there effectiveness in high protein environment. Certain bacteria developed resistance. They are toxic or cause irritations. Some are highly corrosive.

The test system of another data set is fungi. Put plainly: Fungicidal effectiveness, comparison table. Format: cell-based. To be noted: Table 1.
Excerpt: as §1

Excerpt in data set [1]: as §1
A short description of data set [2]: Minimum inhibitory concentration (MIC), comparison of biocidal nanocomposites and existing decontaminants. Format: cell-based. To be noted: Table 1.
Excerpt: as §1

The test system of a further data set is spores. Put plainly: Sporicidal effectiveness, comparison table. Format: cell-based. Particulars: Table 1.
Excerpt: as §1

≈ marks a conversion by molar mass, not a printed value.

With `OCl` [Hypochlorite], the “Effectiveness Bactericidal (G+ & G−)” value in the data set with G+ & G− is on record as “very good”. Also, in the data set with fungi, the “Effectiveness Fungicidal” value was “good”. Also, the Non-corrosive result in data set [1] is “no”. In addition, in data set [1] (Table 1), the Contact time was 1 to 30 min, the “Effective in hard water” value was “poor”, the Effective in organics result was “poor” and the Effective in soap result was “yes”. In data set [1] (Table 1), the Residual activity entry is given as “poor”. Further, the “Minimum inhibitory concentration (MIC)” value in data set [2] was 150 mg/L (≈ 2860 µM). The “Effectiveness Sporicidal” value with spores is given as “no/fair”.
